Our source for the IC50 values is paper PMC9064817 (RSC Advances, 2019).

Experiment [1] has as its system tubulin. As to the kind of experiment: fluorescence-based tubulin polymerization assay. The class given is biochemical, Bos taurus. The conditions noted are these: read-out: Anti-tubulin activity (IC50).
For experiment [2], the system named is tubulin. Put plainly: fluorescence-based tubulin polymerization assay. The class given is biochemical, Bos taurus. Conditions: read-out: Anti-tubulin activity (IC50). The source holds these as a separate data set.

Read-outs that look alike come from different tables or passages of the source.

The IC50 is the concentration needed to halve the response being measured. Regarding `CN1c2cccc(C(=O)Nc3cccnc3)c2Nc2cccc(Cl)c21` [8l, 6-Chloro-5-methyl-N-(pyridin-3-yl)-5,10-dihydrophenazine-1-carboxamide], the IC50 in the experiment with tubulin [1] was found to be 2360 nM.

Regarding `COc1cccc(NC(=O)c2cccc3c2Nc2cccc(Cl)c2N3C)c1` [8a, 6-Chloro-N-(3-methoxyphenyl)-5-methyl-5,10-dihydrophenazine-1-carboxamide], the IC50 with tubulin [1] worked out at 2640 nM.

For `COC(=O)Nc1nc2ccc(C(=O)c3cccs3)cc2[nH]1` [Nocodazole], in the experiment with tubulin [2], the IC50 was […].
